Laboratory results: PubChem BioAssay AID651630 (Sanford-Burnham Center for Chemical Genomics, 2012)
Activity calls are given as the source filed them.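 Rule for the calls: active = lipid-stain IC50 at or below a set limit, with nuclear-stain toxicity IC50 at least five times higher; inactive = the rest.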

Experiments:
[1] = tested on: DAPI; test: triacylglycerol accumulation inhibitor potency, dose response, cell-based, panel, Nile Red and DAPI fluorescence, H9c2 (AID 651630); settings: H9c2 cells, DAPI nuclear fluorescence (cytotoxicity counter-readout), oleic acid;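 note: cells exposed to compound overnight before fixation and staining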
[2] = tested on: TAG; test: as above; settings: H9c2 cells, Nile Red TAG fluorescence, oleic acid

SMILES	IC50 cytotoxicity (DAPI nuclear signal decrease) ([1]; mean of runs)	IC50 cytotoxicity (DAPI nuclear signal decrease) ([1]; run 1) [µM]	IC50 cytotoxicity (DAPI nuclear signal decrease) ([1]; run 2) [µM]	IC50 ([2]; mean of runs)	IC50 ([2]; run 1) [µM]	IC50 ([2]; run 2) [µM]
CC(C)(Oc1ccc(Cl)cc1)C(=O)Nc1ccc2oc(-c3ccncc3)nc2c1	> 25 µM (inactive)	> 25	> 25	> 25 µM (inactive)	> 25	> 25
COc1ccc2cc3cc(C(=O)NCCc4ccc(OC)c(OC)c4)oc3nc2c1	> 25 µM (inactive)	> 25	> 25	> 25 µM (inactive)	> 25	> 25
CCOc1ccc(C2=Nc3ccccc3C(c3ccc(N4CCOCC4)cc3)=NN2)cc1	> 25 µM (inactive)	> 25	> 25		> 25	14.4
CN1CSC(=S)N(C)C1	> 25 µM (inactive)	> 25	> 25	> 25 µM (inactive)	> 25	> 25
COC(=O)Nc1nc2ccc(Sc3ccccc3)cc2[nH]1	> 25 µM (inactive)	> 25	> 25	> 25 µM (inactive)	> 25	> 25
CC(C)N1CSC(=S)N(Cc2ccccc2)C1	> 25 µM (inactive)	> 25	> 25	> 25 µM (inactive)	> 25	> 25
CCCCCCSc1cc(-c2nc3ccc(Cl)cn3c2NC2CCCCC2)ccc1OC	> 25 µM (inactive)	> 25	> 25	22.6 µM (inactive)	20.4	24.7
COC(=O)[C@]1(Cc2ccccc2)N[C@H](c2ccc(-c3cccc(Cl)c3)c(OC)c2)[C@@H]2C(=O)N(C)C(=O)[C@@H]21	> 25 µM (inactive)	> 25	> 25	> 25 µM (inactive)	> 25	> 25
CC1(C(=O)Nc2cccc(Oc3ccccc3)c2)Cc2c(-c3ccc4c(c3)OCO4)ccnc2O1 (centres undefined)	> 25 µM (inactive)	> 25	> 25	> 25 µM (inactive)	> 25	> 25
Cc1ccc2[nH]c(-c3ccccc3)cc(=O)c2c1	> 25 µM (inactive)	> 25	> 25	> 25 µM (inactive)	> 25	> 25
CCCc1[nH]n(-c2ccc([N+](=O)[O-])cc2)c(=O)c1C=NCCc1c[nH]c2ccccc12	> 25 µM (inactive)	> 25	> 25	11.9 µM	10.3	13.6
O=C(Nc1cccc(Cl)c1)c1nc[nH]c1C(=O)NCCCNC(=O)c1[nH]cnc1C(=O)Nc1cccc(Cl)c1	> 25 µM (inactive)	> 25	> 25		9.63	> 25
O=[N+]([O-])c1cc(S(=O)(=O)Nc2cccc(Cl)c2)ccc1N/N=C/c1ccc(N2CCOCC2)cc1	> 25 µM (inactive)	> 25	> 25	13.6 µM	12.5	14.7
C[C@H](CO)N1C[C@H](C)[C@H](CN(C)S(=O)(=O)c2ccc(Cl)cc2)OCc2ccccc2-c2c(n(C)c3ccccc23)C1=O		13	> 25	> 25 µM (inactive)	> 25	> 25
COc1ccc(S(=O)(=O)N(C)C[C@@H]2OCCCC[C@H](C)Oc3ccc(NC(=O)Nc4ccc(C(F)(F)F)cc4)cc3C(=O)N([C@H](C)CO)C[C@H]2C)cc1	> 25 µM (inactive)	> 25	> 25	> 25 µM (inactive)	> 25	> 25
O=[N+]([O-])c1ccccc1/C=C/C=N/Nc1ccc(S(=O)(=O)Nc2ccc(Cl)cc2)cc1[N+](=O)[O-]		> 25	> 25	4.41 µM	3.5	5.32
CC(Sc1nc(NCc2ccccc2)nc(N2CCOCC2)n1)C(=O)Nc1ccccc1 (centres undefined)		> 25	> 25	1.44 µM	1.29	1.58

SMILES	IC50 cytotoxicity (DAPI nuclear signal decrease) ([1]; mean of runs)	IC50 cytotoxicity (DAPI nuclear signal decrease) ([1]; run 1) [µM]	IC50 cytotoxicity (DAPI nuclear signal decrease) ([1]; run 2) [µM]	IC50 ([2]; mean of runs)	IC50 ([2]; run 1) [µM]	IC50 ([2]; run 2) [µM]
COc1cc(OC)nc(Nc2nc(C(N)Cc3ccc(Cl)cc3)cs2)n1 (centres undefined)	> 25 µM (inactive)	> 25	> 25		> 25	23.4
O=C1c2ccccc2C(=O)c2c1ccc(C(=O)N1CCCCC1)c2NCCO		> 25	> 25	3.42 µM	3.47	3.38
COc1cc(C2c3cc4c(cc3OC(C)(N3CCCC3)C2C)OCO4)cc(OC)c1OC (centres undefined)	> 25 µM (inactive)	> 25	> 25	13.8 µM	10.4	17.1
COc1ccc(NS(=O)(=O)c2cccc(C(=O)N/N=C/c3cn(-c4ccccc4)nc3-c3ccccc3)c2)cc1	> 25 µM (inactive)	> 25	> 25	8.79 µM	7.63	9.96
CCOC(=O)c1[nH]c(C)c(C(=O)Nc2ccccc2C)c1C	> 25 µM (inactive)	> 25	> 25	> 25 µM (inactive)	> 25	> 25
C[C@H](O)C#Cc1ccc2c(c1)O[C@@H](CN(C)Cc1ccc(-c3ccccc3)cc1)[C@H](C)CN([C@@H](C)CO)S2(=O)=O	> 25 µM (inactive)	> 25	> 25		> 25	17.9
O=C1C(NS(=O)(=O)c2cccs2)=C(N2CCN(c3cccc(C(F)(F)F)c3)CC2)C(=O)c2ccccc21	> 25 µM (inactive)	> 25	> 25	5.88 µM	7.01	4.75
O=C(CCl)N(CCCNC(=O)C(F)(F)F)c1ccc([N+](=O)[O-])cc1	> 25 µM (inactive)	> 25	> 25	> 25 µM (inactive)	> 25	> 25
COc1ccc(C#Cc2ccc3c(c2)O[C@@H](CN(C)C(=O)Nc2cccc(OC)c2)[C@H](C)CN([C@@H](C)CO)S3(=O)=O)cc1	> 25 µM (inactive)	> 25	> 25	8.47 µM	7.39	9.55
Cc1cc(=O)oc2cc(NC(=O)c3cccc(Br)c3)ccc12	> 25 µM (inactive)	> 25	> 25	> 25 µM (inactive)	> 25	> 25
C[C@@]12C(=O)Nc3ccc(Br)cc3C(=O)N1[C@H]1c3cc(Cl)ccc3OC[C@@H]1[C@@H]2c1ccccc1	> 25 µM (inactive)	> 25	> 25	14.6 µM	9.4	19.8
COC(=O)[C@@]1(Cc2ccccc2)[C@H]2C(=O)N(Cc3ccccc3)C(=O)[C@H]2[C@H]2CN=C(SCc3ccc(Cl)cc3)N21	> 25 µM (inactive)	> 25	> 25	9.75 µM	10.4	9.1
CCN(CC)S(=O)(=O)c1ccc(N2CCOCC2)c(NC(=O)c2[nH]c(C)c(C(C)=O)c2C)c1	> 25 µM (inactive)	> 25	> 25	7 µM	6.05	7.95
O=C1N=C(N2CCOCC2)S/C1=C/c1ccc(-c2ccc(F)cc2)o1	> 25 µM (inactive)	> 25	> 25	19.7 µM (inactive)	18.6	20.7
O[C@H]1CN(CC2CCCCC2)[C@@H](c2ccc(Cl)cc2)C[C@@H]1n1cc(-c2ccc(F)cc2)nn1	> 25 µM (inactive)	> 25	> 25		18.5	> 25
Cc1nn2c(N3CCCC3)cc(C(C)C)nc2c1-c1ccccc1	> 25 µM (inactive)	> 25	> 25	> 25 µM (inactive)	> 25	> 25
